Data from US20250360130A1, “METHODS OF TREATING INDOLENT SYSTEMIC MASTOCYTOSIS” (Telios Pharma Inc., priority 2024, published 2025).
pEC50: −log10 of the molar value.

Columns and labels:
basophils = assay: Comparison of BTK inhibitors by BAT (CD63, CD203c); format: cell-based, human; conditions: concentration of 1 μM, 2 hours, blood from a healthy donor
Description: The BAT assay using the Flow Cast Basophil Activation Kit (Buhlmann Diagnostics; Catalog #B-CCR-STCON) was then conducted following manufacturer instructions by (1) stimulating the blood with anti-FcεR stimulation control in stimulation buffer with IL-3 and staining cells for CCR3 and CD63 for 15 minutes at 37° C., (2) lysing red blood cells and fixing cells with Lysing Reagent at room temperature for 10 minutes, (3) washing cells with Wash Buffer, and (4) acquiring data on a flow cytometer. Activated basophils were defined as CCR3+, low side scatter and CD63+. Percent of activated basophils was calculated as number of activated basophils over the total number of basophils. A four-parameter logistic regression was applied to determine the EC50 and EC90.
Blood samples were gently rocked at room temperature for 2 hours. […] Activated basophils were also defined as CCR3+, low side scatter and CD203c+.

[1] = test system: healthy mast cells and ISM mast cells; assay: Potency across healthy mast cells and ISM mast cells (FIG. 16); format: cell-based, human; conditions: presence of SCF, NP-IgE sensitization, NP-BSA stimulation
Description: Healthy BM-MC donor 0166 and ISM WB-MC 1061-004 17 Jan. 2024 and 17 Oct. 2024. Experiments performed in the presence of SCF. Sensitization and Stimulation: NP-IgE (100 ng/ml) 18 hrs, NP-BSA (0.5 ng/ml) for 15 min at 37° C. (CD63, CD203, pBTK and histamine) or 4 min at RT (Calcium Flux).

BTK [2] = biological target: T1, BTK (Homo sapiens, UniProt Q06187); assay: MRGPRX2-induced BTK phosphorylation in ISM-like mast cells; format: cell-based; parameters: Human mast cells were differentiated from bone marrow CD34+ cells from six healthy donors; endogenous in cells; host or cells: human mast cells differentiated from bone marrow CD34+ cells of healthy donors, cultured with SCF; conditions: 0.1 μM, C48/80 stimulation
Description: Human mast cells were differentiated from bone marrow CD34+ cells from four healthy donors and were cultured in the presence of SCF (100 ng/mL) to mimic mast cells in ISM and treated with Compound 128 for two hours prior to stimulation. Mas-related G protein-coupled receptor (MRGPRX2) agonists, Compound 48/80 (C48/80; a product of N-methyl-p-methoxyphenethylamine with formaldehyde) or Substance P (SP) were used to activate the MRGPRX2 pathway. For pBTK test, cells were stimulated with C48/80 (10 μg/mL) for ten minutes at 37° C. and cells were stained. The median fluorescence intensity of phosphorylated BTK was measured. The fold change over unstimulated control for pBTK was calculated. For cytokine test, cells were stimulated with C48/80 (10 μg/mL) or SP (30 μM) for four hours at 37° C. Supernatant was collected and cytokine levels were measured using the BD Cytometric Bead Array (CBA) human soluble protein master buffer kit (Becton Dickinson) and BD CBA human soluble protein flex sets for IL-8, MCP-1, GM-CSF and IL-13 (Becton Dickinson). Cytokine levels were measured and normalized to percent of control, with 0% representing the level of the unstimulated control.

BTK [3] = biological target: T1, BTK; assay: Phospho-BTK (pBTK) test in basophils, whole blood; format: cell-based; parameters: Human mast cells were differentiated from bone marrow CD34+ cells from six healthy donors; endogenous in cells; host or cells: human mast cells differentiated from bone marrow CD34+ cells of healthy donors, cultured with SCF; conditions: 24 hours exposure, CCR3+ basophils, anti-FcεR stimulation; read-out: average EC50 (n=4), pBTK (Y223) normalized to DMSO control
Description: Blood from four healthy donors was drawn and Compound 128 was added at various concentrations (10 µM, 3.16 μM, 1 μM, 0.3 μM, 0.1 μM, 0.03 μM, or 0 μM). Blood samples were gently rocked at room temperature for 24 hours. The pBTK test was then conducted by (1) stimulating the blood with anti-FcεR stimulation control from Flow Cast Basophil Activation Kit and staining cells for CCR3 (Becton Dickinson) and a near-IR dead cell stain (nIR; Invitrogen) for 15 minutes at 37° C., (2) lysing red blood cells and fixing cells with Phosflow Lyse/Fix Buffer (Becton Dickinson) at 37° C. for 10 minutes, (3) washing once with 1× phosphate-buffered saline (PBS), (4) washing twice with Perm/Wash buffer (Becton Dickinson), (5) permeabilizing cells with Perm/Wash buffer on ice for 15 minutes, (6) staining cells for rabbit anti-human pBTK (Abcam) for 30 minutes on ice, (7) washing twice with Perm/Wash buffer, (8) staining with goat anti-rabbit secondary antibody (Invitrogen) for 30 minutes on ice, (9) washing twice with Perm/Wash buffer, and (10) acquiring data on a flow cytometer. Live basophils were defined as nIR−, CCR3+ and low side scatter. The median fluorescence intensity of phosphorylated BTK was measured and percent of stimulated control was calculated. […] The percent of stimulated control of activated mast cells (CD63+) was calculated. […]

T1 sequence (Q06187 whole entry): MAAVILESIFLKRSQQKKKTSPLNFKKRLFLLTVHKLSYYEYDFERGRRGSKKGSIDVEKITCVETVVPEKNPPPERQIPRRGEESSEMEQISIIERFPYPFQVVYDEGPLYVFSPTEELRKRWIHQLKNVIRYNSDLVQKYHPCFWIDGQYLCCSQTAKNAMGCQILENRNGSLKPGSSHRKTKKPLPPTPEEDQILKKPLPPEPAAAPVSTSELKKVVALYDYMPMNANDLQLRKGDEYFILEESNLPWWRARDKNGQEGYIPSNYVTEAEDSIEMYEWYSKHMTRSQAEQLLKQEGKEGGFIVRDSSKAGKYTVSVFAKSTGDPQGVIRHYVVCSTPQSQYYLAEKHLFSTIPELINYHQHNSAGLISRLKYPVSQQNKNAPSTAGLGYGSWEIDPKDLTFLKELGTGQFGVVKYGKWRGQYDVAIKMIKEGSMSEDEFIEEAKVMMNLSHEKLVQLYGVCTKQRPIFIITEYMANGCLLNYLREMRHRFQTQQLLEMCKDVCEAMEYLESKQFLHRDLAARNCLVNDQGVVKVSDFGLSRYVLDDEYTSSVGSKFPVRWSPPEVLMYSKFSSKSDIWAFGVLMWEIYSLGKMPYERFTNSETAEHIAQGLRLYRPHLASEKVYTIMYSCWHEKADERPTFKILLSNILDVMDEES

MRGPRX2-induced BTK phosphorylation (BTK [2]): inhibited | pEC50 (BTK [3]): 6.89
Structure (SMILES): C=CC(=O)N1CCC(F)(CNc2ncnc(N)c2-c2ccc(Oc3ccccc3)cc2)CC1 [Compound 128, 1-(4-(((6-amino-5-(4-phenoxyphenyl)pyrimidin-4-yl)amino)methyl)-4-fluoropiperidin-1-yl)prop-2-en-1-one]
basophil activation (CD63+, CD203c+) (basophils): fully inhibits basophil activation | potency in healthy versus ISM mast cells (CD63, CD203, pBTK, histamine, calcium flux) [1]: equipotent
